Test results taken from PubChem BioAssay AID248 (DTP/NCI, 2004).
“And” between values parts separate entries of the source, which are not always exact repeats. Equal entries are not always repeated. Inconclusive results and toxic doses are left out.

Tested on: L1210 leukemia ip in BDF1 mice, survival T/C
Assay: NCI In Vivo Anticancer Drug Screen. Data for tumor model L1210 Leukemia (intraperitoneal) in B6D2F1 (BDF1) mice
Details: endpoint: mean survival time, higher = longer survival
Procedure, shortened: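 Transplantable tumor model; survival measured in treated vs vehicle control mice. Value = treated/control.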

[1] = dose: 100.0 mg/kg/injection, schedule: Q04DX003 (ip), vehicle: Klucel (hydroxypropylcellulose) (HPC)
[2] = dose: 200.0 mg/kg/injection, schedule: Q04DX003 (ip), vehicle: Klucel (hydroxypropylcellulose) (HPC)
[3] = dose: 50.0 mg/kg/injection, schedule: Q04DX002 (ip), vehicle: saline
[4] = dose: 100.0 mg/kg/injection, schedule: Q04DX002 (ip), vehicle: saline

COc1cc(C=Nc2ccc(-c3csc(-c4ccccc4)n3)c(Cl)c2)ccc1N(CCCl)CCCl
T/C (dose: 13.3 mg/kg/injection, schedule: Q01DX001 (ip), vehicle: carboxymethylcellulose (CMC)): 122 % of control | T/C (dose: 20.0 mg/kg/injection, schedule: Q01DX009 (ip), vehicle: carboxymethylcellulose (CMC)): 158 % of control | T/C (dose: 100.0 mg/kg/injection, schedule: Q01DX001 (ip), vehicle: carboxymethylcellulose (CMC)): 166 % of control | T/C (dose: 200.0 mg/kg/injection, schedule: Q01DX001 (ip), vehicle: carboxymethylcellulose (CMC)): 95 % of control

CCc1cccc(CC)c1N1C(=O)C2C(C1=O)C1(Cl)C(Cl)=C(Cl)C2(Cl)C1(Cl)Cl (stereo unspecified)
T/C (dose: 25.0 mg/kg/injection, schedule: Q01DX009 (ip), vehicle: Klucel (hydroxypropylcellulose) (HPC)): 98 % of control | T/C (dose: 25.0 mg/kg/injection, schedule: Q04DX003 (ip), vehicle: Klucel (hydroxypropylcellulose) (HPC)): 91 % of control | T/C (dose: 50.0 mg/kg/injection, schedule: Q01DX009 (ip), vehicle: Klucel (hydroxypropylcellulose) (HPC)): 102 % of control | T/C (dose: 50.0 mg/kg/injection, schedule: Q04DX003 (ip), vehicle: Klucel (hydroxypropylcellulose) (HPC)): 93 % of control | T/C (dose: 100.0 mg/kg/injection, schedule: Q01DX009 (ip), vehicle: Klucel (hydroxypropylcellulose) (HPC)): 105 % of control | T/C [1]: 106 % of control and 88 % of control

CC(=O)NC1C(OCc2ccccc2)OC(COC(c2ccccc2)(c2ccccc2)c2ccccc2)C(N=[N+]=[N-])C1OCc1ccccc1 (stereo unspecified)
T/C (dose: 100.0 mg/kg/injection, schedule: Q01DX001 (ip), vehicle: saline with Tween-80): 86 % of control | T/C (dose: 200.0 mg/kg/injection, schedule: Q01DX001 (ip), vehicle: saline with Tween-80): 86 % of control | T/C (dose: 400.0 mg/kg/injection, schedule: Q01DX001 (ip), vehicle: saline with Tween-80): 102 % of control

CC(C)(C)/[N+]([O-])=[N+](\[O-])C(C)(C)C (tested in a mixture with another compound)
T/C (dose: 100.0 mg/kg/injection, schedule: Q01DX009 (ip), vehicle: saline with Tween-80): 98 % of control | T/C [1]: 100 % of control | T/C (dose: 200.0 mg/kg/injection, schedule: Q01DX009 (ip), vehicle: saline with Tween-80): 105 % of control | T/C [2]: 96 % of control | T/C (dose: 400.0 mg/kg/injection, schedule: Q01DX009 (ip), vehicle: saline with Tween-80): 90 % of control

O=NN(CCF)C(=O)NC1CCS(=O)(=O)CC1
T/C (dose: 1.12 mg/kg/injection, schedule: Q01DX015 (ip), vehicle: other): 119 % of control | T/C (dose: 1.76 mg/kg/injection, schedule: Q01DX015 (ip), vehicle: other): 179 % of control | T/C (dose: 1.9 mg/kg/injection, schedule: Q01DX001 (ip), vehicle: saline with Tween-80): 201 % of control | T/C (dose: 2.0 mg/kg/injection, schedule: Q01DX001 (ip), vehicle: other): 118 % of control | T/C (dose: 2.68 mg/kg/injection, schedule: Q01DX015 (ip), vehicle: other): 309 % of control and 311 % of control | T/C (dose: 3.52 mg/kg/injection, schedule: Q02DX008 (ip), vehicle: other): 231 % of control and 246 % of control | T/C (dose: 3.75 mg/kg/injection, schedule: Q01DX001 (ip), vehicle: other): 160 % of control | T/C (dose: 3.8 mg/kg/injection, schedule: Q01DX001 (ip), vehicle: saline with Tween-80): 207 % of control | T/C (dose: 4.0 mg/kg/injection, schedule: Q01DX015 (ip), vehicle: other): 422 % of control and 644 % of control | T/C (dose: 4.7 mg/kg/injection, schedule: Q## X004 (ip), vehicle: other): 268 % of control | T/C (dose: 5.0 mg/kg/injection, schedule: Q01DX001 (ip), vehicle: other): 163 % of control | T/C (dose: 5.36 mg/kg/injection, schedule: Q02DX008 (ip), vehicle: other): 484 % of control and 538 % of control | T/C (dose: 5.6 mg/kg/injection, schedule: Q## X032 (ip), vehicle: other): 261 % of control | T/C (dose: 6.0 mg/kg/injection, schedule: Q01DX015 (ip), vehicle: other): 290 % of control and 433 % of control | T/C (dose: 6.0 mg/kg/injection, schedule: Q## X032 (ip), vehicle: other): 153 % of control | T/C (dose: 7.0 mg/kg/injection, schedule: Q## X004 (ip), vehicle: other): 519 % of control and 532 % of control | T/C (dose: 7.5 mg/kg/injection, schedule: Q01DX001 (ip), vehicle: other): 302 % of control | T/C (dose: 7.5 mg/kg/injection, schedule: Q01DX001 (ip), vehicle: saline with Tween-80): 557 % of control | T/C (dose: 8.0 mg/kg/injection, schedule: Q01DX001 (ip), vehicle: other): 186 % of control | T/C (dose: 8.0 mg/kg/injection, schedule: Q02DX008 (ip), vehicle: other): 426 % of control and 715 % of control | T/C (dose: 9.0 mg/kg/injection, schedule: Q01DX015 (ip), vehicle: other): 339 % of control | T/C (dose: 9.4 mg/kg/injection, schedule: Q01DX001 (ip), vehicle: other): 364 % of control | T/C (dose: 10.0 mg/kg/injection, schedule: Q01DX001 (ip), vehicle: other): 340 % of control | T/C (dose: 10.7 mg/kg/injection, schedule: Q## X004 (ip), vehicle: other): 605 % of control and 650 % of control | T/C (dose: 12.0 mg/kg/injection, schedule: Q02DX008 (ip), vehicle: other): 330 % of control and 476 % of control | T/C (dose: 13.0 mg/kg/injection, schedule: Q## X032 (ip), vehicle: other): 468 % of control | T/C (dose: 14.0 mg/kg/injection, schedule: Q01DX001 (ip), vehicle: other): 577 % of control and 580 % of control | T/C (dose: 15.0 mg/kg/injection, schedule: Q01DX001 (ip), vehicle: other): 365 % of control | T/C (dose: 15.0 mg/kg/injection, schedule: Q01DX001 (ip), vehicle: saline with Tween-80): 666 % of control | T/C (dose: 16.0 mg/kg/injection, schedule: Q01DX001 (ip), vehicle: other): 315 % of control | T/C (dose: 16.0 mg/kg/injection, schedule: Q## X004 (ip), vehicle: other): 365 % of control and 580 % of control | T/C (dose: 18.0 mg/kg/injection, schedule: Q02DX008 (ip), vehicle: other): 326 % of control | T/C (dose: 19.0 mg/kg/injection, schedule: Q## X032 (ip), vehicle: other): 180 % of control and 430 % of control | T/C (dose: 20.0 mg/kg/injection, schedule: Q01DX001 (ip), vehicle: other): 365 % of control | T/C (dose: 24.0 mg/kg/injection, schedule: Q## X004 (ip), vehicle: other): 231 % of control and 271 % of control | T/C (dose: 29.0 mg/kg/injection, schedule: Q## X032 (ip), vehicle: other): 115 % of control | T/C (dose: 30.0 mg/kg/injection, schedule: Q01DX001 (ip), vehicle: other): 365 % of control | T/C (dose: 30.0 mg/kg/injection, schedule: Q01DX001 (ip), vehicle: saline with Tween-80): 677 % of control | T/C (dose: 31.0 mg/kg/injection, schedule: Q01DX001 (ip), vehicle: other): 315 % of control | T/C (dose: 36.0 mg/kg/injection, schedule: Q## X004 (ip), vehicle: other): 253 % of control | T/C (dose: 40.0 mg/kg/injection, schedule: Q01DX001 (ip), vehicle: other): 334 % of control

c1ccc(C2C(c3ccccc3)N2C23CC4CC(CC(C4)C2)C3)cc1 (stereo unspecified)
T/C [1]: 88 % of control | T/C [2]: 94 % of control

CC(=O)c1cn(C2CC(O)C(CO)O2)c(=O)[nH]c1=O (stereo unspecified)
T/C (dose: 50.0 mg/kg/injection, schedule: Q01DX001 (ip), vehicle: saline): 117 % of control | T/C [3]: 96 % of control | T/C (dose: 100.0 mg/kg/injection, schedule: Q01DX001 (ip), vehicle: saline): 111 % of control | T/C [4]: 105 % of control | T/C (dose: 200.0 mg/kg/injection, schedule: Q01DX001 (ip), vehicle: saline): 105 % of control | T/C (dose: 200.0 mg/kg/injection, schedule: Q04DX002 (ip), vehicle: saline): 121 % of control

CNNC(=O)c1ccccc1
T/C (dose: 6.25 mg/kg/injection, schedule: Q04DX002 (ip), vehicle: saline): 119 % of control | T/C (dose: 12.5 mg/kg/injection, schedule: Q04DX002 (ip), vehicle: saline): 97 % of control | T/C (dose: 25.0 mg/kg/injection, schedule: Q04DX002 (ip), vehicle: saline): 97 % of control | T/C [3]: 94 % of control and 97 % of control | T/C [4]: 98 % of control

CNC(C)(C)C(SS)c1ccc(Cl)cc1 (stereo unspecified)
T/C (dose: 25.0 mg/kg/injection, schedule: Q01DX009 (ip), vehicle: saline with Tween-80): 92 % of control | T/C (dose: 25.0 mg/kg/injection, schedule: Q04DX003 (ip), vehicle: saline with Tween-80): 102 % of control | T/C (dose: 50.0 mg/kg/injection, schedule: Q01DX009 (ip), vehicle: saline with Tween-80): 98 % of control | T/C (dose: 50.0 mg/kg/injection, schedule: Q04DX003 (ip), vehicle: saline with Tween-80): 96 % of control | T/C (dose: 75.0 mg/kg/injection, schedule: Q01DX009 (ip), vehicle: saline with Tween-80): 94 % of control | T/C (dose: 100.0 mg/kg/injection, schedule: Q04DX003 (ip), vehicle: saline with Tween-80): 98 % of control

CC(=O)CCC1(c2cc[n+](C)cc2)CCC(C)(O)C(C(C)=O)C1 (stereo unspecified)
T/C (dose: 100.0 mg/kg/injection, schedule: Q04DX003 (ip), vehicle: saline): 93 % of control | T/C (dose: 200.0 mg/kg/injection, schedule: Q04DX003 (ip), vehicle: saline): 94 % of control | T/C (dose: 400.0 mg/kg/injection, schedule: Q04DX003 (ip), vehicle: saline): 100 % of control
